Patent publication US11414385B2, “Compounds and methods for treating, detecting, and identifying compounds to treat apicomplexan parasitic diseases” (The University of Chicago, priority 2015, dated 2022)
Entries after “also recorded” stand apart in the source; their conditions may differ.

Legend:
Toxoplasma RPS13 delta = experiment: RPS13 delta G0 arrested parasite in interferon gamma knockout mice; type: in vivo, Toxoplasma gondii; settings: with tafenoquine 3 mg/kg single dose, minus tetracycline
Description: RPS13 Δ. This G0 arrested parasite persists in tissue culture for prolonged times in the absence of tetracycline. The parasite (x) was used to infect interferon gamma knockout mice. For the first y days no tetracycline was administered. After that time tetracycline was administered. Mice were observed and at the time they appeared ill or at the termination of the experiment they were euthanized and tissues fixed in formalin and stained with hematoxylin and eosin or immunoperoxidase stained and parasite burden was assessed.

CYP = CYP profile; type: in vitro ADME
[1] = system: human foreskin fibroblasts (HFF); experiment: Cytotoxicity assay with WST-1 in HFF; type: cell-based; settings: 10 μM and 50 μM, WST-1
Description: (§1) Toxicity assays were conducted using WST-1 cell proliferation reagent (Roche). HFF were grown on a flat, clear-bottomed, black 96-well plate. Confluent HFF were treated with inhibitory compounds at concentrations equal to those being tested in challenge assays. Compounds were diluted in IMDM-C, and 20 μl were added to each designated well, with triplicates for each condition. A gradient of 2 fold-decreasing concentrations of DMSO in clear IMDM-C was used as a control. The plate was incubated for 72 hours at 37° C. 10 μl of WST-1 reagent (Roche) were added to each well and the cells were incubated for 30 to 60 minutes. Absorbance was read using a fluorometer at 420 nm. A higher degree of color change (and absorbance) indicated mitochondrial activity and cell viability.
as §1, with “(Roche) as described in Fomovska, et. al. (18,19).” for “(Roche).”, “of 10 μM and 50 μM.” for “equal to those being tested in challenge assays.”, “DMSO from 10% to 0%” for “DMSO”, “fluorimeter” for “fluorometer”

[2] = system: S. cerevisiae wild type parental AD1-9 strain; experiment: Yeast growth inhibition on glycerol medium, wild type; type: cell-based, Saccharomyces cerevisiae; settings: 1 mM, 100, 5 and 1 μM
Description: Three S. cerevisiae strains were used: M221Q and M221F cytochrome b mutants and wild type. They share the same nuclear genetic background deriving from AD1-9 (kindly given by M. Ghislain, UCL, Belgium). AD1-9 harbors multiple deletions in the ABC transporter genes that render the strain more sensitive to drugs than standard yeast strains^S65.
Protocol: Yeast strains were grown over 48 hours at 33° C. in liquid YPG medium [1% yeast extract, 2% (wt/vol) peptone, and 3% (vol/vol) glycerol). Cultures were diluted to an OD600 of 0.05 and grown for 2 hrs. Cultures were then combined with YPG containing 6% melted agar for a total volume of 15-20 mL and poured onto OmniTray single-well rectangular plates that measured 86 mm by 128 mm (ThermoScientific). Filter paper disks (7 mm diameter, […]) were placed onto the cooled agar plates. […] A single disk with DMSO on each plate was used as a control. Plates were incubated at 33° C. Images were obtained after 4 days using GelDoc XR Imaging System (BioRad) and Quantity One software. Drug effect was assessed by the presence and size of a zone of inhibition around the disks.

P. falciparum Dd2 = experiment: SYBR Green drug sensitivity of Dd2 and cytochrome b / scDHODH lines; type: cell-based, Plasmodium falciparum
Description: We used the following parasite line from the MR4 repository of the American Type Culture Collection (ATCC): Dd2 (MRA-156). Mutant Dd2 parasites harboring a G33A or G33V substitution in cytochrome b were as reported. Dd2 parasites with a G131 S mutation in cytochrome b and transgenic lines expressing a chromosomally integrated copy of the S. cerevisiae DHODH were utilized as previously described. Parasites were cultured by standard methods in RPMI media supplemented with 5% human O^+ serum and 0.25% AlbuMAX® II (Life Technologies 11021-045).
Drug susceptibility was measured using the SYBR Green method. Twelve point curves based on 2-fold dilutions of the test compound were carried out in triplicate each day and replicated on at least three different days. EC50 values were calculated using a nonlinear regression curve fit in Prism 6.0 for Mac (GraphPad Software, Inc.).

[3] = Cytotoxicity assay with WST-1 in HFF; type: cell-based; settings: human, human foreskin fibroblasts (HFF); read-out: HFF Toxicity CC50
Description: as §1
as §1, with “(Roche) as described in Fomovska, et. al. (18,19).” for “(Roche).”, “of 10 μM and 50 μM.” for “equal to those being tested in challenge assays.”, “DMSO from 10% to 0%” for “DMSO”, “fluorimeter” for “fluorometer”

Dd2 parasites = experiment: Isobologram drug combination assay (fixed ratio, FIC); type: cell-based, Plasmodium falciparum; settings: Dd2, fixed ratios
Description: Isobologram experiments were performed in similar fashion utilizing the modified fixed ratio methodology. Briefly, MJM170 and either atovaquone or cycloguanil or BRD6323 were mixed at multiple fixed volumetric ratios (10:0, 8:2, 6:4, 4:6, 2:8, and 0:10) and then serially diluted in 12-point 2-fold dilutions and dispensed in triplicate to 384-well assay plates and replicated on three different days. EC50 values were calculated as above, and FICs were calculated for each drug combination as described^S76. Synergy was defined as an FIC <1.0, additivity as FIC=1.0, and antagonism as FIC >1.0.

Row | Structure (SMILES) | protection against RPS13 delta in combination with tafenoquine (Toxoplasma RPS13 delta) | CYP profile (CYP) | toxicity to human foreskin fibroblasts [1] | growth inhibition of wild type yeast [2] | cross-resistance in cytochrome b drug-resistant mutant lines (P. falciparum Dd2; Dd2 G33A and Dd2 G33V) | EC50 (P. falciparum Dd2; Plasmodium falciparum, DD2) [µM] | inhibition of parasite supplemented with yeast cytosolic DHODH (P. falciparum Dd2; scDHODH line) | CC50 at 72 h [3] [µM] | combination effect with BRD6323 (Dd2 parasites) | combination effect with atovaquone (Dd2 parasites) | combination effect with cycloguanil (Dd2 parasites)
1 | Cc1[nH]c2c(c(=O)c1-c1ccc(Oc3ccc(OC(F)(F)F)cc3)cc1)CCCC2 [JAG21, 2-methyl-3-(4-(4-(trifluoromethoxy)phenoxy)phenyl)-5,6,7,8-tetrahydroquinolin-4(1H)-one] | both needed to contain RPS 13Δ; also recorded: protect against a G0 arrested parasite; also recorded: superior to either alone | clean | no toxicity |  |  |  |  |  |  |  | 
2 | Cc1[nH]c2c(c(=O)c1-c1ccc(Oc3ccccc3)cc1)CCCC2 [MJM170] |  |  |  | effective | without cross-resistance | 0.0295 | cannot inhibit | 20 | Antagonism | modest synergy; also recorded: modestly synergistic; also recorded: Slight synergy | additive effect
